ChEMBL document CHEMBL5653593 (Clin Sci (Lond), 2002)

What was measured:
Endothelin-1 receptor [1] = molecular target: T1, Endothelin-1 receptor (Homo sapiens, UniProt P25101); assay: Antagonist activity at human ETA receptor transfected in CHO cell membrane assessed as inhibition of 125I-labelled ET-1 binding to receptor incubated for 3 hrs by competition binding assay; assay type: functional, cell membranes
T1 sequence (P25101 whole entry): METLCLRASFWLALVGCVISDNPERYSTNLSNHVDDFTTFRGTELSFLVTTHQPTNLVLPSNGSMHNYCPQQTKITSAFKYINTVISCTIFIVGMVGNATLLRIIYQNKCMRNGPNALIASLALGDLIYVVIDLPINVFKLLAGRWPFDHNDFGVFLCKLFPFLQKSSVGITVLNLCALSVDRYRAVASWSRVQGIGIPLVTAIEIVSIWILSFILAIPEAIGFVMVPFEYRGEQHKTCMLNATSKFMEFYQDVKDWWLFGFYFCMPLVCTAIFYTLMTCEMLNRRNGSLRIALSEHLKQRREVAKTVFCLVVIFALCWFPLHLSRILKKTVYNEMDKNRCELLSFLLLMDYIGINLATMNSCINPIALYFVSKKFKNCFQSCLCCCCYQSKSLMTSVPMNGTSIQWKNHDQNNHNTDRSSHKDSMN

Endothelin-1 receptor [2] = molecular target: T2, Endothelin-1 receptor (Rattus norvegicus, UniProt P26684); assay: Antagonist activity at ETA receptor in rat MMQ cells assessed as inhibition of phosphatidylinositol hydrolysis by myo-[3H]inositol radioactivity based assay; assay type: functional, cell-based
T2 sequence (P26684 whole entry): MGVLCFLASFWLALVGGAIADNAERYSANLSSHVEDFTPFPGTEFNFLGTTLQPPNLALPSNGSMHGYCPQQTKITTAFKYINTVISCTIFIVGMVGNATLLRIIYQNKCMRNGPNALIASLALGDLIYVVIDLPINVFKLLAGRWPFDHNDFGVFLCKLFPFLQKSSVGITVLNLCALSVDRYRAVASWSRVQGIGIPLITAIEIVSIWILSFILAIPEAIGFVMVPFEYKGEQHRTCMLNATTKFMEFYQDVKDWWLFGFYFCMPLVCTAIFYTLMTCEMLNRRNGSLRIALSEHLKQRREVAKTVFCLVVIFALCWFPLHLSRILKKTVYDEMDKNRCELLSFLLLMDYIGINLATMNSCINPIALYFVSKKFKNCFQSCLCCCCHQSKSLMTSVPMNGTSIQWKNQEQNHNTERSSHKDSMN

Endothelin-1 receptor [3] = molecular target: T1, Endothelin-1 receptor; assay: Binding affinity to human ETA receptor transfected in CHO cell membrane assessed as inhibition constant incubated for 3 hrs by 125I-labelled ET-1 saturation binding assay; assay type: cell membranes
[4] = molecular target: T3, Endothelin receptor type B (Homo sapiens, UniProt P24530); assay: Antagonist activity at human ETB receptor transfected in CHO cell membrane […]; assay type: functional, cell membranes
T3 sequence (P24530 whole entry): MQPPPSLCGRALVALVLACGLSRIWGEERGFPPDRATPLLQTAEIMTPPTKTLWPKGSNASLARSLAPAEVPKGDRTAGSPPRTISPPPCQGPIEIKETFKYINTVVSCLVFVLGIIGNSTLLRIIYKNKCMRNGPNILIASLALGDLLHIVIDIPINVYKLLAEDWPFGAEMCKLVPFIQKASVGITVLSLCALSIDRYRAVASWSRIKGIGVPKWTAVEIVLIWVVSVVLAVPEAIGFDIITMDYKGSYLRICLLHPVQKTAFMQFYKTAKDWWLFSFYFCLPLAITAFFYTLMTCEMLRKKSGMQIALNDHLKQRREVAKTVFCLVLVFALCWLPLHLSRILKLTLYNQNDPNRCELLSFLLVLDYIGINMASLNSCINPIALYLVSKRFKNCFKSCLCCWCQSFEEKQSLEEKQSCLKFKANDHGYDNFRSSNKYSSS

[5] = molecular target: T3, Endothelin receptor type B; assay: Binding affinity to human ETB receptor transfected in CHO cell membrane assessed as inhibition constant incubated for 3 hrs by 125I-labelled ET-1 saturation binding assay; assay type: cell membranes

IC50 (Endothelin-1 receptor [1]) [nM]	IC50 (Endothelin-1 receptor [2]) [nM]	Ki (Endothelin-1 receptor [3]) [nM]	IC50 [4] [nM]	Ki [5] [nM]	SMILES
4280	≥ 700	5600	0.59		CCCOc1ccc([C@H]2[C@H](C(=O)O)[C@@H](c3ccc4c(c3)OCO4)CN2CC(=O)Nc2c(CC)cccc2CC)cc1 [A-192621]
	0.59				CCCCN(CCCC)C(=O)CN1C[C@H](c2cc(OC)c3c(c2)OCO3)[C@@H](C(=O)O)[C@@H]1CC(C)(C)CCC [ABT-546]
			1.12	1.23	CCCCCS(=O)(=O)N(CCC)CCN1C[C@H](c2ccc3c(c2)OCO3)[C@@H](C(=O)O)[C@@H]1c1ccc(OC)c(F)c1
